Measurements published in ChEMBL document CHEMBL3244314, “Synthesis and xanthine oxidase inhibitory analysis of 1H-pyrrolo[3,2-c]pyridine-4,6(5H,7H)-dione (3,7-dideazaxanthine) and two of its derivatives” (J Med Chem, 1978).

Columns and labels:
[1] = target: T1, Xanthine dehydrogenase/oxidase (Bos taurus, UniProt P80457); assay: Noncompetitive inhibition of bovine buttermilk xanthine oxidase by Lineweaver-burk plot analysis; settings: read-out: Kis
[2] = target: T1, Xanthine dehydrogenase/oxidase; assay: Inhibition of bovine buttermilk xanthine oxidase by spectrophotometric analysis; settings: cattle

T1 sequence (P80457 whole entry): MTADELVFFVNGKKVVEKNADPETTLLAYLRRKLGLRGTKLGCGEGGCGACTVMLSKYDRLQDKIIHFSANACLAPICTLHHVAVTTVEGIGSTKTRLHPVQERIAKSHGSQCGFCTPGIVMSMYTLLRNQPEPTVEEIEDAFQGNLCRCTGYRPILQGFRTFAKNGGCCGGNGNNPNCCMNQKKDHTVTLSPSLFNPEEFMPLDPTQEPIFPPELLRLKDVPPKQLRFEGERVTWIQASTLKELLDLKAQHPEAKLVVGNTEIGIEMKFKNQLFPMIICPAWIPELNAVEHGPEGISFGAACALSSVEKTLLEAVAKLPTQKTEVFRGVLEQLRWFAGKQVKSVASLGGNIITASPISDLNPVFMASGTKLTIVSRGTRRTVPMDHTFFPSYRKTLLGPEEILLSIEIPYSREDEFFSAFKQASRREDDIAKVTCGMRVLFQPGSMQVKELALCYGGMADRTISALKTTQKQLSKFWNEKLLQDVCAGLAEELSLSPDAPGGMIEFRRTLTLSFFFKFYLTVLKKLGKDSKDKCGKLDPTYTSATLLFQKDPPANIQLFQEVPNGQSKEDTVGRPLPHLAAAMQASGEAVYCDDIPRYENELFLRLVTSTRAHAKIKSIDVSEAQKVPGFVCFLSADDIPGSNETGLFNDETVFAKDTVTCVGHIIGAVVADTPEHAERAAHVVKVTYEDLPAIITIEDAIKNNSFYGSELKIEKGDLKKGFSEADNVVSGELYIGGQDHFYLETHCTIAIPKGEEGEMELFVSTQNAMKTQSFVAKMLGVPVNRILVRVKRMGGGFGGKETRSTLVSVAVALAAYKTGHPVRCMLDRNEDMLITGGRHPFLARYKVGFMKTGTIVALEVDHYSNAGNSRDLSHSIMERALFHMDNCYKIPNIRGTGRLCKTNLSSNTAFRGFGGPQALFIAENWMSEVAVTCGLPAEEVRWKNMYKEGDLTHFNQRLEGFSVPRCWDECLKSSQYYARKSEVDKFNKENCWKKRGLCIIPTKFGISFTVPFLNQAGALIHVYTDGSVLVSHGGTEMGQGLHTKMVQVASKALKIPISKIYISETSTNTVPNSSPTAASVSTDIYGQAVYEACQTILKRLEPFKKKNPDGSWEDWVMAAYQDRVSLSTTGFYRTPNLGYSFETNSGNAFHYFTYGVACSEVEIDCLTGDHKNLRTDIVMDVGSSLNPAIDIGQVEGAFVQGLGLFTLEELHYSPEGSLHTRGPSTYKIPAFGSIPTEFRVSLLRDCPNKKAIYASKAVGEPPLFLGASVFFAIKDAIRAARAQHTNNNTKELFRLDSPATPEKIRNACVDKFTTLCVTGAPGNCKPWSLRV

Row | Ki [1] [µM] | inhibition (INH) [2] | Structure (SMILES)
1 | 92.5 |  | O=C1Cc2[nH]ccc2C(=O)N1
2 | 120 |  | CN1C(=O)Cc2[nH]ccc2C1=O
3 |  | Not Active | O=C1Cc2[nH]ccc2C(=O)O1
